Results as given in US7138361B2, “Herbicidal heterocycles” (E. I. du Pont de Nemours and Company, priority 2000, dated 2006).

Legend:
Type in all cases: in vivo
[1] = system: smallflower flatsedge (Cyperus difformis); assay: Test C flooded paddy test; conditions: for Plant response rating, Flatsedge: scale 0 to 100 (0 no effect, 100 complete control)
How it was run: (§1)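 2-leaf-stage plants, flooded paddy; treated; greenhouse 12–14 days; compared with controls by eye; rated 0–100 (0 none, 100 complete control).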

[2] = system: duck salad (Heteranthera limosa); assay: Test C flooded paddy test; conditions: for Plant response rating, Ducksalad: scale 0 to 100 (0 no effect, 100 complete control)
How it was run: as §1

[3] = system: rice (Oryza saliva); assay: Test C flooded paddy test; conditions: for Plant response rating, Rice: scale 0 to 100 (0 no effect, 100 complete control)
How it was run: as §1

[4] = system: barnyardgrass (Echinochloa crus-galli); assay: Test C flooded paddy test; conditions: for Plant response rating, Barnyardgrass: scale 0 to 100 (0 no effect, 100 complete control)
How it was run: as §1

[5] = system: Surinam grass (Brachiaria decumbens); assay: Test C preemergence
How it was run: (§2)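 Preemergence: seeds sown then treated. Postemergence: plants 2–18 cm, 1- to 4-leaf. Both with surfactant-containing solvent formulation; visual injury scored 0–100 after 12–14 d.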

[6] = system: lambsquarters (Chenopodium album); assay: Test C preemergence
How it was run: as §2

[7] = system: morningglory (Ipomoea hederacea); assay: Test C preemergence
How it was run: as §2

[8] = system: Nightshade; assay: Test C preemergence
[9] = system: yellow nutsedge (Cyperus esculentus); assay: Test C preemergence
How it was run: as §2

[10] = system: common ragweed (Ambrosia elatior); assay: Test C preemergence
How it was run: as §2

[11] = system: woolly cupgrass (Eriochloa villosa); assay: Test C preemergence
How it was run: as §2

[12] = system: johnsongrass (Sorghum halepense); assay: Test C preemergence
How it was run: as §2

[13] = system: corn (Zea mays); assay: Test C preemergence
How it was run: as §2

[14] = system: pigweed (Amaranthus retroflexus); assay: Test C preemergence
How it was run: as §2

[15] = system: giant foxtail (Setaria faberii); assay: Test C preemergence
How it was run: as §2

[16] = system: velvetleaf (Abutilon theophrasti); assay: Test B preemergence
How it was run: (§3)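 Greenhouse test: chemicals are formulated in a surfactant-containing non-phytotoxic solvent and applied either preemergence to planted seeds or postemergence to plants 2 to 18 cm tall. Response is rated visually versus controls after 13 to 15 days, 0 meaning no effect and 100 complete control.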

[17] = system: barnyardgrass (Echinochloa crus-galli); assay: Test B preemergence
How it was run: as §3

[18] = system: Sunflower; assay: Test C preemergence; conditions: Rate 62 g/ha, scale 0 to 100
[19] = Flooded Paddy, Rate 500 g/ha, scale 0 to 100, 0 no effect, 100 complete control
[20] = flooded paddy test, Rate 125 g/ha
[21] = flooded paddy test, Rate 250 g/ha
[22] = flooded paddy test, Rate 62 g/ha, visually evaluated after 12 to 14 days, 0 = no effect, 100 = complete control
[23] = Rate 125 g/ha, scale 0 to 100, 0 no effect, 100 complete control
[24] = preemergence, Rate 62 g/ha, scale 0 to 100
[25] = preemergence, Rate 500 g/ha, visual evaluation after 12 to 14 days
[26] = preemergence, Rate 250 g/ha, scale 0 to 100, 0 no effect, 100 complete control
[27] = Preemergence, Rate 500 g/ha, scale 0 to 100, 0 no effect, 100 complete control
[28] = preemergence, Rate 125 g/ha, scale of 0 to 100 where 0 is no effect and 100 is complete control, 13 to 15 days

**Q.** With `CCC(CC)c1ccn(C2CCN(c3ccc(Br)c(OC)c3)C2=O)n1` (stereo not shown) [Compound 143] as the molecule, how does the “Flatsedge plant response rating” value [1, 19] read?
**A.** 100

**Q.** And the “Plant response rating, Flatsedge” value [1, 20]?
**A.** 95

**Q.** And the “Plant response rating, Flatsedge” value [1, 21]?
**A.** 95

**Q.** And the “Plant response rating (scale 0 to 100), Flatsedge” value [1, 22]?
**A.** 90

**Q.** And the “Ducksalad plant response rating” value [2, 19]?
**A.** 100

**Q.** What about the “Plant response rating, Ducksalad” value [2, 20] of the same molecule?
**A.** 75

**Q.** And the “Plant response rating, Ducksalad” value [2, 21]?
**A.** 95

**Q.** And the “Plant response rating (scale 0 to 100), Ducksalad” value [2, 22]?
**A.** 45

**Q.** What about the “Rice plant response rating” value [3, 19] of the same molecule?
**A.** 60

**Q.** And the “Plant response rating, Rice” value [3, 20]?
**A.** 30

**Q.** What about the “Plant response rating, Rice” value [3, 21] of the same molecule?
**A.** 50

**Q.** And the “Plant response rating (scale 0 to 100), Rice” value [3, 22]?
**A.** 0

**Q.** What about the “Barnyardgrass plant response rating” value [4, 19] of the same molecule?
**A.** 100

**Q.** And the “Plant response rating, Barnyardgrass” value [4, 20]?
**A.** 100

**Q.** And the “Plant response rating, Barnyardgrass” value [4, 21]?
**A.** 100

**Q.** What about the “Plant response rating (scale 0 to 100), Barnyardgrass” value [4, 22] of the same molecule?
**A.** 55

**Q.** And the “Plant response rating, Surinam grass” value [5, 23]?
**A.** 0

**Q.** What about the “Plant response rating, Surinam grass” value [5, 24] of the same molecule?
**A.** 0

**Q.** What about the “Plant response rating (0 to 100), Surinam grass” value [5, 25] of the same molecule?
**A.** 70

**Q.** And the “Plant response rating, Surinam grass” value [5, 26]?
**A.** 70

**Q.** What about the “Plant response rating, Lambsquarters” value [6, 23] of the same molecule?
**A.** 100

**Q.** And the “Plant response rating, Lambsquarters” value [6, 24]?
**A.** 100

**Q.** And the “Plant response rating (0 to 100), Lambsquarters” value [6, 25]?
**A.** 100

**Q.** What about the “Plant response rating, Lambsquarters” value [6, 26] of the same molecule?
**A.** 100

**Q.** And the “Plant response rating, Morningglory” value [7, 23]?
**A.** 100

**Q.** What about the “Plant response rating, Morningglory” value [7, 24] of the same molecule?
**A.** 30

**Q.** What about the “Plant response rating (0 to 100), Morningglory” value [7, 25] of the same molecule?
**A.** 100

**Q.** What about the “Plant response rating, Morningglory” value [7, 26] of the same molecule?
**A.** 100

**Q.** What about the “Plant response rating, Nightshade” value ([8]; Rate 62 g/ha, scale 0 to 100) of the same molecule?
**A.** 100

**Q.** And the “Plant response rating, Nightshade” value [8, 23]?
**A.** 100

**Q.** And the “Plant response rating, Nightshade” value ([8]; Rate 250 g/ha, scale 0 to 100, 0 no effect, 100 complete control)?
**A.** 100

**Q.** And the “Plant response rating, Nutsedge” value [9, 23]?
**A.** 0

**Q.** And the “Plant response rating, Nutsedge” value [9, 24]?
**A.** 0

**Q.** And the “Plant response rating (0 to 100), Nutsedge” value [9, 25]?
**A.** 0

**Q.** What about the “Plant response rating, Nutsedge” value [9, 26] of the same molecule?
**A.** 0

**Q.** And the “Plant response rating, Ragweed, Common” value [10, 23]?
**A.** 100

**Q.** What about the “Plant response rating, Ragweed, Common” value [10, 24] of the same molecule?
**A.** 90

**Q.** What about the “Plant response rating (0 to 100), Ragweed, Common” value [10, 25] of the same molecule?
**A.** 100

**Q.** What about the “Plant response rating, Ragweed, Common” value [10, 26] of the same molecule?
**A.** 100

**Q.** What about the “Plant response rating, Cupgrass, Woolly” value [11, 23] of the same molecule?
**A.** 100

**Q.** And the “Plant response rating, Cupgrass, Woolly” value [11, 24]?
**A.** 90

**Q.** What about the “Plant response rating (0 to 100), Cupgrass, Woolly” value [11, 25] of the same molecule?
**A.** 100

**Q.** What about the “Plant response rating, Cupgrass, Woolly” value [11, 26] of the same molecule?
**A.** 100

**Q.** And the “Plant response rating, Johnsongrass” value [12, 23]?
**A.** 60

**Q.** What about the “Plant response rating, Johnsongrass” value [12, 24] of the same molecule?
**A.** 0

**Q.** And the “Plant response rating (0 to 100), Johnsongrass” value [12, 25]?
**A.** 90

**Q.** What about the “Plant response rating, Johnsongrass” value [12, 26] of the same molecule?
**A.** 90

**Q.** What about the “Plant response rating, Corn” value [13, 23] of the same molecule?
**A.** 30

**Q.** And the “Plant response rating, Corn” value [13, 24]?
**A.** 30

**Q.** What about the “Plant response rating (0 to 100), Corn” value [13, 25] of the same molecule?
**A.** 30

**Q.** What about the “Plant response rating, Corn” value [13, 26] of the same molecule?
**A.** 30

**Q.** What about the “Plant response rating, Pigweed” value [14, 23] of the same molecule?
**A.** 100

**Q.** What about the “Plant response rating, Pigweed” value [14, 24] of the same molecule?
**A.** 100

**Q.** What about the “Plant response rating (0 to 100), Pigweed” value [14, 25] of the same molecule?
**A.** 100

**Q.** What about the “Plant response rating, Pigweed” value [14, 26] of the same molecule?
**A.** 100

**Q.** And the “Plant response rating, Foxtail, Giant” value [15, 23]?
**A.** 100

**Q.** And the “Plant response rating, Foxtail, Giant” value [15, 24]?
**A.** 100

**Q.** And the “Plant response rating (0 to 100), Foxtail, Giant” value [15, 25]?
**A.** 100

**Q.** And the “Plant response rating, Foxtail, Giant” value [15, 26]?
**A.** 100

**Q.** What about the “Plant response rating, Velvetleaf” value [16, 27] of the same molecule?
**A.** 80

**Q.** What about the “Plant response rating, Velvetleaf” value [16, 28] of the same molecule?
**A.** 60

**Q.** And the “Plant response rating, Barnyardgrass” value [17, 27]?
**A.** 100

**Q.** What about the “Plant response rating, Barnyardgrass” value [17, 28] of the same molecule?
**A.** 100

**Q.** What about the “Plant response rating, Sunflower” value [18] of the same molecule?
**A.** 60
